In patent US12037372B2, “Bioactive peptides derived from snakes” (Universiteit Leiden, priority 2018, dated 2024):
Several values for one entry are separate records, joined by “and”; a condition that tells them apart may be missing. Identical values can stand only once.

Legend:
[1] = test system: MDR P. aeruginosa (LUH 15103); assay: Bactericidal activity of peptides (in vitro killing assay); assay type: cell-based, Pseudomonas aeruginosa; conditions: 2-hour treatment, 50% v/v human plasma, median (range)
Procedure: (§1) Enterococcus faecium (LUH 15122), Staphylococcus aureus (LUH 14616), Klebsiella pneumoniae (LUH 15104), Acinetobacter baumannii (RUH 875), Pseudomonas aeruginosa (LUH 15103), Enterobacter cloacae (LUH 15114) and Escherichia coli (LUH 15117) were used. Prior to experimentation the bacteria were taken from a glycerol stock stored at −80° C. and cultured overnight on sheep blood agar plates at 37° C. On the day of experimentation the bacteria were cultured in tryptic soy broth (TSB; Oxoid) for 2.5 hours at 37° C. and 200 rpm to a mid-logarithmic phase. The bacterial suspension was washed in phosphate buffered saline (PBS; pH 7.4), centrifuged for 10 minutes at 3000 rpm, and resuspended in PBS to the desired concentration, as determined by measuring the absorbance at 600 nm.
(§2) As a control the bacteria were also incubated in PBS with either 50% plasma or 50% urine without peptide. The plate was incubated for 2 hours at 37° C. and 200 rpm. After incubation the number of viable bacteria was determined microbiologically by plating the samples and a 10-times dilution series in PBS on diagnostic sensitivity test agar plates (DST; Sigma). The DST plates were incubated overnight at 37° C. Results were expressed as lethal concentration 99.9, or LC99.9, which represents the lowest concentration of peptide that killed 99.9% of the bacteria within 2 hours of incubation.

[2] = test system: MDR S. aureus (LUH 14616), MRSA; assay: as above; assay type: cell-based, Staphylococcus aureus; conditions: MDR S. aureus LUH 14616; 2-hour treatment; 50% v/v human plasma; lowest concentration killing ≥99.9%; median (range)
Procedure: as §1, §2

[3] = test system: multidrug resistant strain Acinetobacter baumannii RUH875; assay: as above; assay type: cell-based; conditions: 50% (v/v) human plasma, 2 hours
Procedure: as §1, §2

[4] = test system: human neutrophils; assay: Neutrophil migration assay; assay type: cell-based; conditions: 3.2 μM peptide
Procedure: Heparinized blood was collected from healthy human volunteers. Next, 10 ml of blood were mixed to 15 ml of PBS in a tube. Underneath the diluted blood, 10 ml of Ficoll (Pharmacy, LUMC) were added. The tube was spun at 1800 rpm for 20 minutes without brake. The supernatant was removed and 40 ml of erythrocyte lysis buffer (0.1 mM EDTA, 0.18 M NH4Cl, 10 mM KHCO3) were added to the pellet. This mixture was incubated at room temperature until erythrocyte lysis was evident. The tube was centrifuged at 1200 rpm for 10 minutes, the supernatant was discarded. The pellet was washed again with PBS the same way. The pellet was resuspended in RPMI 1640 medium and the cells were counted with a counting chamber. The cells were diluted to 2×10^6 cells/ml of RPMI 1640. The inserts with a 3.0 μm pore size in a 12-well plate (HTS transwell; Costar) were blocked with 400 μl of PBS with 0.1% w/v BSA for 10 minutes at room temperature after which the BSA solution was discarded. The 2×10^6 cells/ml suspension was diluted with RPMI to add 400 μl of a 2×10^5 cells/ml suspension to the inserts. […] In the lower compartment 1 ml of the chemoattractant was added. […] Results were expressed as the percentage of migrated neutrophils compared to the positive FMLP control, and corrected for the negative control.

| Substance | LC99.9 (μM) MDR P. aeruginosa in 50% plasma [1] | LC99.9 (μM) MRSA in 50% plasma [2] | LC99.9 (μM) A. baumannii ([3]; Table 5) | LC99.9 (μM) A. baumannii ([3]; Table 6) | migrated neutrophils [4] |
| --- | --- | --- | --- | --- | --- |
| KRFLRVFRKLKKGLKKLFKRKKVVTGYVTA [SP32] | 12.8 µM | 25.6 µM | – | – | – |
| KRFKKFFMKLKKSVKKRVMKFFKKPMVIGVTFPF [SP12] | 3.2 µM | 25.6 (12.8->102.4) μM | – | – | – |
| KRFRKFFKRLLKSVRRAVKKFRKKPRLIGLSTLL [SP8] | 1.6 µM | 25.6 µM | – | – | – |
| KRFKKFFKKIKNGIKTFIKKTQMAIGSHFRW [SP30] | 2.4 (1.6-3.2) μM | 51.2 µM | – | – | – |
| KFFRKVKKGVHRYFKKNKFYIAAT [SP27-67] | – | – | 3.2 µM | – | – |
| KKFFRKVKKGVHRYFKKNKFYIAA [SP27-66] | – | – | 1.6 µM | – | – |
| KRFKKFFRKVKKGVHRYFKKNKFY [SP27-63] | – | – | 0.4 µM | 0.4 µM | – |
| RKVKKGVHRYFKKNKFYIAATIPY [SP27-70] | – | – | 12.8 µM | – | – |
| KRFKKFFKKIKNSVKKRVKKFFKKPRVIGVSIPF [SP23] | 0.2 µM | 4.8 (3.2-6.4) μM | – | – | – |
| FRKVKKGVHRYFKKNKFYIAATIP [SP27-69] | – | – | 25.6 µM | – | – |
| KRFAGFFQFVIGVSFHF [SP21] | >102.4 µM | >102.4 µM | – | – | – |
| KRVKRFKKFFKKVKKSVKKRLKKIFKKPMVIGVTIPF [SP2] | 0.4 µM | 25.6 µM | – | – | – |
| RKFKKSFKKIRKWVKKATKIAGEVAVEILITKVILGSVGL [SP1] | 3.2 µM | >102.4 µM | – | – | – |
| KRFKKFFKKVKKSVKKRLKKIFKKPMVIGVTIPF [SP6] | 0.4 µM | 57.6 (12.8-102.4) μM | – | – | – |
| KRFKNFFKKIRDGIHEFIHNNRFVIGVNFRF [SP29] | 51.2 µM | >102.4 µM | – | – | – |
| KRFKKFLKKLKKSVKKHVKEFFKKPRVIGV [SP35] | 1.6 µM | 51.2 µM | – | – | – |
| LL-37 | – | – | – | – | 5.6% |
| KRFVGSFQLVVGVSFRF [SP34] | >102.4 µM | >102.4 µM | – | – | – |
| KRFLRLVVFKKLKKGLRKLFKKKKIVTGHVTS [SP28] | 6.4 µM | 51.2 µM | – | – | – |
| KRFKDFFHRIRDGVRDFFRNNHFVCGVNFRF [SP17] | >102.4 µM | >102.4 µM | – | – | – |

| Substance | LC99.9 (μM) MDR P. aeruginosa in 50% plasma [1] | LC99.9 (μM) MRSA in 50% plasma [2] | LC99.9 (μM) A. baumannii ([3]; Table 5) | LC99.9 (μM) A. baumannii ([3]; Table 6) | migrated neutrophils [4] |
| --- | --- | --- | --- | --- | --- |
| AREKSFLQKMKVILQLSSQDQIQAF [SP20] | >102.4 µM | >102.4 µM | – | – | – |
| KRFKKFFKKVKKSVKKRLKKIFKKPIVIGVSIPF [SP25] | 0.4 µM | 12.8 µM | – | – | – |
| FFRKVKKGVHRYFKKNKFYIAATI [SP27-68] | – | – | 12.8 µM | – | – |
| KRFKKFFKKLKNSVRKCAKKFFKKLRVIRVSIPF [SP24] | 1.6 µM | 6.4 µM | – | – | – |
| RFKKFFRKVKKGVHRYFKKNKFYI [SP27-64] | – | – | 0.8 µM | – | – |
| KRFLRVFKKLKRGIRKLFKKKKIVTGPLTS [SP19] | 12.8 µM | >102.4 µM | – | – | – |
| KRFKKFFRKLKKSVKKRVKKFFKKPRVIGVTIPF [SP11] | 0.4 µM | 3.2 µM | – | – | – |
| KRFKKFFKKIKTGIKKVIKKTKQAIASHFRW [SP18] | 0.8 µM | > 102.4 µM and 102.4 µM | – | – | – |
| FKKFFRKVKKGVHRYFKKNKFYIA [SP27-65] | – | – | 1.6 µM | – | – |
| KVKKGVHRYFKKNKFYIAATIPYY [SP27-71] | – | – | 12.8 µM | – | – |
| KRFAGFFQFVVGVSFRF [SP33] | >102.4 µM | >102.4 µM | – | – | – |
| KRFKKFFKKVKKSVKKRLKKIFKKPMVIGVSIPF [SP7] | 0.8 µM | 38.4 (25.6-51.2) μM | – | – | – |
| VKKGVHRYFKKNKFYIAATIPYYG [SP27-72] | – | – | 25.6 µM | – | – |
| DQVERGNFAKDGSKARVKKSLTKWVKFLKKIIAKLGRPLIGF [SP22] | 51.2 µM | 102.4 µM | – | – | – |
| KRFKKFFKKAKKSVKKRLKKFFNKTRVIGVSIPF [SP14] | 0.4 µM | 12.8 µM | – | – | – |
| KRFKKFFKKLKNSVKKRVKKFFRKPRVIGVTFPF [SP3] | 0.8 µM | 3.2 µM | – | – | – |
| KRFKNFFKRVRDGIRDFFRKNHIVIGVNFRF [SP31] | 25.6 µM | 102.4 µM | – | – | – |
| KRFKKFFKKVKKSVKKRLKKIFKKPMVIGVTFPF [SP9] | 1.6 µM | 51.2 (25.6-51.2) μM | – | – | – |
| KRFTFYKKVKKNVENLLNKFFKKLRVIGDSIPF [SP26] | 12.8 µM | >102.4 µM | – | – | – |
| KRFKKFFRKIKKGFRKIFKKTKIFIGGTIPI [SP15] | 0.8 µM | 12.8 µM | – | – | – |
